Source: paper PMC7615677 (Science translational medicine, 2023)
Like-named read-outs stand apart in the source and are kept apart here.

Legend:
In vivo pharmacokinetics = assay: In vivo pharmacokinetics; set-up: species or system male beagle dogs
Method: Additional PK studies were also conducted by WuXi AppTec Co, Ltd (Shanghai, China) according to protocols reviewed and approved by DNDi. […] IV and oral formulations for rats, mice and hamsters were the same as described above. For dogs, the IV dose was administered in saline containing 2% DMSO and 3% Solutol HS-15 and the oral formulation was as described above. Blood was sampled up to 48 h post-dose into vials containing potassium EDTA as an anticoagulant, proteins were precipitated with acetonitrile and plasma was separated and assayed by LC-MS.
Single dose pharmacokinetic parameters (clearance, volume of distribution and half-life) were initially estimated using non-compartmental methods and oral bioavailability was calculated using the ratio of the dose corrected AUC after oral dosing relative to that after IV administration. Nominal doses were used in the calculations unless the measured dose differed by more than 15% from the nominal dose, in which case the measured dose was used. Where a full concentration versus time profile was obtained from a single animal, parameters were estimated for each animal and mean and standard deviations calculated. In the case of mice where sparse sampling was used with multiple animals per time point, the data analysis was conducted using the mean profile.

BSEP = BSEP (Homo sapiens, UniProt O95342); assay: Drug transporter inhibition panel; type: in vitro ADME; conditions: 1 and 10 μM
Excerpt: (§1) Listed values represent the percent change relative to the DMSO control activity. When an IC50 had to be determined, eight different concentrations were included. All values are the mean of assay readout duplicates.

MATE2-K = molecular target: T1, MATE2-K (Homo sapiens, UniProt Q86VL8); assay: Drug transporter inhibition panel; type: in vitro ADME
T1 construct: Eurofins
Excerpt: as §1

OAT3 = molecular target: T2, OAT3 (Homo sapiens, UniProt Q8TCC7); assay: Drug transporter inhibition panel; type: in vitro ADME; conditions: 1 and 10 μM
T2 construct: Eurofins
Excerpt: as §1

BCRP = BCRP (Homo sapiens, UniProt Q9UNQ0); assay: Drug transporter inhibition panel; type: in vitro ADME; conditions: 1 and 10 μM
Excerpt: as §1

OCT2 = molecular target: T3, OCT2 (Homo sapiens, UniProt O15244); assay: Drug transporter inhibition panel; type: in vitro ADME; conditions: 1 and 10 μM
T3 construct: Eurofins
Excerpt: as §1

OCT1 = molecular target: T4, OCT1 (Homo sapiens, UniProt O15245); assay: Drug transporter inhibition panel; type: in vitro ADME; conditions: 1 and 10 μM
T4 construct: Eurofins
Excerpt: as §1

OAT1 = molecular target: T5, OAT1 (Homo sapiens, UniProt Q4U2R8); assay: Drug transporter inhibition panel; type: in vitro ADME; conditions: 1 and 10 μM
T5 construct: Eurofins
Excerpt: as §1

OATP1B3 = molecular target: T6, OATP1B3 (Homo sapiens, UniProt Q9NPD5); assay: Drug transporter inhibition panel; type: in vitro ADME
T6 construct: Eurofins
Excerpt: as §1

OATP1B1 = molecular target: T7, OATP1B1 (Homo sapiens, UniProt Q9Y6L6); assay: Drug transporter inhibition panel; type: in vitro ADME
T7 construct: Eurofins
Excerpt: as §1

hERG potassium channel = molecular target: T8, hERG potassium channel (Homo sapiens, UniProt Q12809); assay: hERG channel test (Qpatch / Qube); type: cell-based; conditions: CHO cells stably expressing hERG potassium channels, Qpatch hERG (Fig. S15)
T8 construct: host or cells: Chinese hamster ovary cells
Method: Two concentrations (1 and 30 μM, two replicates each) were tested at room temperature.

[1] = molecular target: T9, human cytochrome bc1 complex (Homo sapiens, UniProt P00156); assay: Human complex III inhibition assay; type: biochemical
T9 construct: Preparation of mitochondria from a human cell line (THP-1); endogenous in cells; host or cells: THP-1 (human) mitochondria
Method: Preparation of mitochondria from a human cell line (THP-1) was performed following published procedure ([21]). The protocol for the assay has been described in ([22]).

[2] = In vitro metabolism, cryopreserved hepatocytes; type: in vitro ADME, dog
Method: Cell viability was determined using trypan blue exclusion. The incubation was performed on a plate shaker (Heidolph Titrimax 100, 900 rpm) placed in a humidified incubator (37°C, 7.5% CO2) for 240 min. The reaction was initiated with the addition of compound with samples taken periodically and quenched with the addition of acetonitrile containing internal standards (metolazone and diazepam). Quenched samples were maintained on ice for approximately 20-30 min, centrifuged (for 5 min) and the supernatant analyzed by LC-MS.
(§2) In vitro intrinsic clearance (CLint, μL/min/mg or μL/min/10^6 cells) values were calculated from the apparent first order degradation rate constant divided by the microsome concentration or the hepatocyte cell number (10^6 viable cells/mL). In vitro CLint values were then divided by the fraction unbound in the in vitro test system (to give CLint,u) and scaled to in vivo values (mL/min/kg) using published physiological scaling factors ([28]). Blood clearance in each species was then calculated using the well-stirred model of hepatic extraction (equation 2) where Q is the hepatic blood flow and fu,blood is calculated from fu,plasma/B:P: [2] PredictedCLblood=Q x fu,blood x CLint,u/Q+fu,blood x CLint,u
(§3) Blood clearance values were converted to plasma clearance by multiplying by the B:P.

[3] = In vitro metabolism, liver microsomes; type: in vitro ADME, human
Method: Compounds were spiked into microsomal matrix prepared in 0.1 M pH 7.4 phosphate buffer containing magnesium chloride (final concentration of 3.3 mM), equilibrated for 5-10 min at 37°C. The reaction was initiated with the addition of freshly prepared solution of NADPH (final 1.3 mM). Control samples without co-factor were included for comparison. Aliquots of the reaction mixtures were taken periodically over 60 min and quenched with acetonitrile containing internal standards (metolazone and diazepam). Quenched samples were maintained on ice for approximately 20-30 min, centrifuged (for 5 min) and the supernatant was analyzed by LC-MS.
as §2, §3

[4] = dogs, single oral 90 mg/kg, two individual dogs, 90 mg/kg
[5] = male, beagle, dog, plasma, dogs, single oral 30 mg/kg
[6] = male, beagle, dog, plasma, dogs, single oral 90 mg/kg
[7] = male, beagle, plasma, Dog, oral 5.0 mg/kg

T7 sequence (Q9Y6L6 whole entry): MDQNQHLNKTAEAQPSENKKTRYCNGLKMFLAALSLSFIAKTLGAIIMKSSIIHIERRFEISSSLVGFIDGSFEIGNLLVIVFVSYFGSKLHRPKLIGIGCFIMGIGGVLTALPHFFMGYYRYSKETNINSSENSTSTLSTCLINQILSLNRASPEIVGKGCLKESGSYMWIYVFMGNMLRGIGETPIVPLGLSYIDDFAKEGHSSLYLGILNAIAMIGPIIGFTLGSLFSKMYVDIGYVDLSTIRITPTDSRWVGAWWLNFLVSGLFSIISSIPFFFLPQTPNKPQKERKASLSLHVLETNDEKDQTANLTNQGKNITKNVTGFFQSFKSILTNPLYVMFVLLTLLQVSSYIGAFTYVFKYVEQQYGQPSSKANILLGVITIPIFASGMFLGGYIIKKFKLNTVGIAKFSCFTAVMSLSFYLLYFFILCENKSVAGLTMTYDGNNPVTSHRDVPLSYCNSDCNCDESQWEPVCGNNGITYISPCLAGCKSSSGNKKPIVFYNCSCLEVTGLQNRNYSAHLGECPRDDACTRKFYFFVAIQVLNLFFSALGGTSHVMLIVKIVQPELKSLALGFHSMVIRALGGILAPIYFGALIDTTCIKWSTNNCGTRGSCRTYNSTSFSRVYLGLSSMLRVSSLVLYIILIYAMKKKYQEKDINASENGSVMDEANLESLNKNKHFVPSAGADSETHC
T5 sequence (Q4U2R8 whole entry): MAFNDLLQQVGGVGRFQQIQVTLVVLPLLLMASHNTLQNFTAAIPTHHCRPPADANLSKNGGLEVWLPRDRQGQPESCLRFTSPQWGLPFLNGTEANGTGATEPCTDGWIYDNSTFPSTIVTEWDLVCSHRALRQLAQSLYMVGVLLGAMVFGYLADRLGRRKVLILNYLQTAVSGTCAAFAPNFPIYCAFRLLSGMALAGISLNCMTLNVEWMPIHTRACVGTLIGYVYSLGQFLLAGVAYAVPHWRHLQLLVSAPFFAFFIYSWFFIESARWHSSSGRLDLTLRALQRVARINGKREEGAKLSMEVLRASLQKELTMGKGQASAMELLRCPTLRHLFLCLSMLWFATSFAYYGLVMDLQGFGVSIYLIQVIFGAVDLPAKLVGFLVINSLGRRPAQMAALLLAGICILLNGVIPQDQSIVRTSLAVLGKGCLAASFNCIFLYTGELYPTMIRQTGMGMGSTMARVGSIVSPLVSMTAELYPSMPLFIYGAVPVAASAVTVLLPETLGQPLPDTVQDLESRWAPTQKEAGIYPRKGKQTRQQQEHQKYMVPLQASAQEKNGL
T2 sequence (Q8TCC7 whole entry): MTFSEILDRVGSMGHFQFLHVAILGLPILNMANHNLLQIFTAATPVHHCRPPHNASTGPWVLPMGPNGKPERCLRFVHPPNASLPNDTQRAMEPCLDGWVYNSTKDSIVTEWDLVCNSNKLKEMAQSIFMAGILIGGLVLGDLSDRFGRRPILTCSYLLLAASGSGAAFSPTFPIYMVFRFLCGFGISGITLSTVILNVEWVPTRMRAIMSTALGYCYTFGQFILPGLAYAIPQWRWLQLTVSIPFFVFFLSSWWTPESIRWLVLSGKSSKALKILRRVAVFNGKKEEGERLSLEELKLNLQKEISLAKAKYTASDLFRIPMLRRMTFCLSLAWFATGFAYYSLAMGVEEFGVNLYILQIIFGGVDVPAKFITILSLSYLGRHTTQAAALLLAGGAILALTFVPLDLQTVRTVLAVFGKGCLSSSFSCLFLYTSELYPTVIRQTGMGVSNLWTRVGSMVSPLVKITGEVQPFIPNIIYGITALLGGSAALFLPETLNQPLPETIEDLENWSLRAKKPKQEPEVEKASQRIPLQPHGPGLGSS
T4 sequence (O15245 whole entry): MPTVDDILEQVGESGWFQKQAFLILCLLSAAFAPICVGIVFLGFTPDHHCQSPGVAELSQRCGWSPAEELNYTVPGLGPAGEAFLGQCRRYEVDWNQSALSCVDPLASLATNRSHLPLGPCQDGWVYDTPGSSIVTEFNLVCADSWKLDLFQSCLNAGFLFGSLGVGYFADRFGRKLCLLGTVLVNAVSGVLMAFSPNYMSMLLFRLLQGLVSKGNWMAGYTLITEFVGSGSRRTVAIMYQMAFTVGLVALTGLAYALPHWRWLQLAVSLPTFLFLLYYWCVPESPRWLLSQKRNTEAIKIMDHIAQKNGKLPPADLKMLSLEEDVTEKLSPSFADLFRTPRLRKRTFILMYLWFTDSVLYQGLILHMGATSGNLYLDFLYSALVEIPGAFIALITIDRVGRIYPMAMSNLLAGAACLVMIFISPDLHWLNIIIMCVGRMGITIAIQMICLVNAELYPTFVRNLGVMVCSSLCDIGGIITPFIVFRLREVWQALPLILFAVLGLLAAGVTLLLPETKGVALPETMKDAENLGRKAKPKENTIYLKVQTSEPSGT
T1 sequence (Q86VL8 1-566 isoform Q86VL8-3): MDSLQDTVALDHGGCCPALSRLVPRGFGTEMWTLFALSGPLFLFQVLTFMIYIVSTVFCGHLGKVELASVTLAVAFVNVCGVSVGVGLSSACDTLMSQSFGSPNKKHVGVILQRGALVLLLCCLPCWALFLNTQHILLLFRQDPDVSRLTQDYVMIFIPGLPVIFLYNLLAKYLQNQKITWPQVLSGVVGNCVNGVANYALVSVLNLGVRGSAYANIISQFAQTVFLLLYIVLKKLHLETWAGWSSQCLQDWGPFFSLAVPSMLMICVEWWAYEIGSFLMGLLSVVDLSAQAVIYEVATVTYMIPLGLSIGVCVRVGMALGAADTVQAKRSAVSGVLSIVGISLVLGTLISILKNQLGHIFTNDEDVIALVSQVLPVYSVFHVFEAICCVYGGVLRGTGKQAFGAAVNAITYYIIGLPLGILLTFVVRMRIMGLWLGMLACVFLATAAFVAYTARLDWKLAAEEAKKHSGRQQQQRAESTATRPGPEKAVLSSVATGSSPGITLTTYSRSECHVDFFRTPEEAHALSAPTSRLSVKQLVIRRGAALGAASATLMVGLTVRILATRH
T8 sequence (Q12809 whole entry): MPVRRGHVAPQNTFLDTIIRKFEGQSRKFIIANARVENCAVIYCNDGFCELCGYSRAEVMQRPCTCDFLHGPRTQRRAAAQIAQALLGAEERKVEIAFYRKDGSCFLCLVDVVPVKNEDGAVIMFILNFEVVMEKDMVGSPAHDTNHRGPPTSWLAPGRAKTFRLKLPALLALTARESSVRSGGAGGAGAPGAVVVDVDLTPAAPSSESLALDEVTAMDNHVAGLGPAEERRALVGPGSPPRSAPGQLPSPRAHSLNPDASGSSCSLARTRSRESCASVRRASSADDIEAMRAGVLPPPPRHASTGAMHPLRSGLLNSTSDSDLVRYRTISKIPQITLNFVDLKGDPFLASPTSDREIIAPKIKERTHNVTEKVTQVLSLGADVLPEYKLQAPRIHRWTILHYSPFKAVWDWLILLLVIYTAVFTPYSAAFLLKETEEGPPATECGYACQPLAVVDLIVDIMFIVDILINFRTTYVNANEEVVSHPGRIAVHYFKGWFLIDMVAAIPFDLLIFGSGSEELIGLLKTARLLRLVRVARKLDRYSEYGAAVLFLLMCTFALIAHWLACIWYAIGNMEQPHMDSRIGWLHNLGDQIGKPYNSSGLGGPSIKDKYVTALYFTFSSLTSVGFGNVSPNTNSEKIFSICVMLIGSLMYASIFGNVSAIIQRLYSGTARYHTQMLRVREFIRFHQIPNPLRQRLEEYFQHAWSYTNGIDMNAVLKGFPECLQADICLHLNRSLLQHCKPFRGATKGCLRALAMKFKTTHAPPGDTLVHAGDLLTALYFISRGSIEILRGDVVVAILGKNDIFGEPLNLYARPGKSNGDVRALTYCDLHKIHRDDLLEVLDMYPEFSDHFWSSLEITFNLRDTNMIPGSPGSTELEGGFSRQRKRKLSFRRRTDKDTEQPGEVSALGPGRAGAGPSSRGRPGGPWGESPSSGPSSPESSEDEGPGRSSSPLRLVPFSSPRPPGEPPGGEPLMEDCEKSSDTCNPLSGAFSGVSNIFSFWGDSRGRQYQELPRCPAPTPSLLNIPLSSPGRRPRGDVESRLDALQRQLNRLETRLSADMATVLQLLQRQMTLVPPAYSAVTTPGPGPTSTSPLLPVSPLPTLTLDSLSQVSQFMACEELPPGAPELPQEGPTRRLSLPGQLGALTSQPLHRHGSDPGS
T6 sequence (Q9NPD5 whole entry): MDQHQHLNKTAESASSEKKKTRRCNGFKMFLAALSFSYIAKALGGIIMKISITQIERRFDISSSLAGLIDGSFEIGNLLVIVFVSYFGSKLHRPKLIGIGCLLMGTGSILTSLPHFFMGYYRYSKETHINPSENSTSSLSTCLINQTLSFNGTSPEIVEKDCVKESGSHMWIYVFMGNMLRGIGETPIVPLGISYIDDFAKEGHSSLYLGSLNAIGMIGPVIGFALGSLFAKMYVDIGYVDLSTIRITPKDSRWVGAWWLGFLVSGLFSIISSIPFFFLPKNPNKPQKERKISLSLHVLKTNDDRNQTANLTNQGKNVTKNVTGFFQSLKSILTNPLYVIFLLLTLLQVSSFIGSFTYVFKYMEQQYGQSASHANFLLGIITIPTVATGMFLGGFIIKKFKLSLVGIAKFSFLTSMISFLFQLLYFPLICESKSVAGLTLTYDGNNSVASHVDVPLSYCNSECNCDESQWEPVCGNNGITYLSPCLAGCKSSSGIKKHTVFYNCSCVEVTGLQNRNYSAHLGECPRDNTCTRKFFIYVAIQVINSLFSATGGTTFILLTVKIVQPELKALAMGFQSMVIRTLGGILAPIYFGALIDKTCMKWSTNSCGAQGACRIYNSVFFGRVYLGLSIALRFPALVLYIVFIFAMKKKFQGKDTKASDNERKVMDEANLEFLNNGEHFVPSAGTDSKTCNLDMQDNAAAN

Cc1[nH]c2nc(N)nc(C)c2c1-c1ccc(C#N)c2c1OCO2 [DNDI-6174]
AUC0-∞ (In vivo pharmacokinetics; [4]): 533 µg·h/mL
T1/2 (In vivo pharmacokinetics; [4]): 20.9 h
half-life (In vivo pharmacokinetics; male, beagle, dog, plasma, iv, 1 mg/kg, Dog, intravenous 1.0 mg/kg, read-out: Apparent t1/2 (converted)): 9.84 h
AUC(0-inf) (In vivo pharmacokinetics; male, beagle, dog, plasma, iv, 1 mg/kg, Dog, intravenous 1.0 mg/kg, read-out: Plasma AUC0-inf): 5 µg·h/mL
clearance (In vivo pharmacokinetics; male, beagle, dog, plasma, iv, 1 mg/kg, Dog, intravenous 1.0 mg/kg, read-out: Plasma CL): 3.5 mL/min/kg
clearance (In vivo pharmacokinetics; male, beagle, dog, plasma, iv, 1 mg/kg, Dog, read-out: Measured in vivo CLplasma): 3.4 mL/min/kg
half-life (In vivo pharmacokinetics; male, beagle, dog, plasma, po, 5 mg/kg, Dog, oral 5.0 mg/kg, read-out: Apparent t1/2 (converted)): 6.9 h
AUC(0-inf) (In vivo pharmacokinetics; male, beagle, dog, plasma, po, 5 mg/kg, Dog, oral 5.0 mg/kg, read-out: Plasma AUC0-∞): 18.5 µg·h/mL
AUC(0-inf) (In vivo pharmacokinetics; male, beagle, dog, plasma, po, 30 mg/kg, dogs, single oral 30 mg/kg, read-out: AUC0-∞): 255 µg·h/mL
half-life (In vivo pharmacokinetics; male, beagle, dog, plasma, po, 30 mg/kg, dogs, single oral 30 mg/kg, read-out: T1/2 (converted)): 14.4 h
AUC(0-inf) (In vivo pharmacokinetics; male, beagle, dog, plasma, po, 90 mg/kg, dogs, single oral 90 mg/kg, two individual dogs, read-out: AUC0-∞): 613 µg·h/mL
half-life (In vivo pharmacokinetics; male, beagle, dog, plasma, po, 90 mg/kg, dogs, single oral 90 mg/kg, two individual dogs, read-out: T1/2 (converted)): 14.2 h
Cmax (In vivo pharmacokinetics; [5]): 9590 ng/mL
Tmax (In vivo pharmacokinetics; [5]): 3.33 h
Cmax (In vivo pharmacokinetics; [6]): 19100 ng/mL
Tmax (In vivo pharmacokinetics; [6]): 10.7 h
Vd (In vivo pharmacokinetics; male, beagle, plasma, Dog, intravenous 1.0 mg/kg, read-out: Plasma Vss): 2.5 L/kg
Cmax (In vivo pharmacokinetics; [7]): 2020 ng/mL
Tmax (In vivo pharmacokinetics; [7]): 4 h
bioavailability (In vivo pharmacokinetics; [7]): 90%
activity remaining (BSEP): > 50%
IC50 (MATE2-K): 0.88 µM
activity remaining (OAT3): > 50%
activity remaining (BCRP): > 50%
activity remaining (OCT2): > 50%
activity remaining (OCT1): > 50%
activity remaining (OAT1): > 50%
IC50 (OATP1B3): 16 µM
IC50 (OATP1B1): 22 µM
IC50 (hERG potassium channel): 31.6 µM
inhibition at 200 µM [1]: < 20%
Hepatocyte predicted in vivo CLplasma ([2]; Dog): 0.30 mL/min/kg
hepatocyte CLint at 0.5 µM ([2]; dog, cryopreserved hepatocytes): 1 ± 0.27 µL/min/1e6 cells
Microsome predicted in vivo CLplasma ([3]; Human): 0.86 mL/min/kg
In vitro Microsome CLint ([3]; Human, 2 independent experiments, ± standard error of estimate): 7.2 ± 1.2 µL/min/mg
microsomal CLint at 0.5 µM ([3]; human, liver microsomes, pH 7.4, Human, 2 independent experiments, ± standard error of estimate, read-out: In vitro Microsome CLint): 6.4 ± 0.75 µL/min/mg
